pIC50: −log10 of the molar value. Counter-ions that a name gives are not always drawn.
What was measured:
CDK1/cyclin B = CDK1/cyclin B kinase assay; type: biochemical, starfish (Marthasterias glacialis); settings: 15 μM ATP, 30° C., histone H1 substrate
Experimental: Homogenization buffers: 60 mM β-glycerophosphate, 15 mM p-nitrophenyl phosphate, 25 mM Mops (pH 7.2), 15 mM EGTA, 15 mM MgCl2, 1 mM DTT, 1 mM sodium vanadate, 1 mM NaF, 1 mM phenyl phosphate, 10 μg leupeptin/ml, 10 μg aprotinin/ml, 10 μg soybean trypsin inhibitor/ml and 100 μM benzamidine.
(§1) Buffer C: 60 mM β-glycerophosphate, 15 mM p-nitrophenyl phosphate, 25 mM Mops (pH 7.2), 5 mM EGTA, 15 mM MgCl2, 1 mM DTT, 1 mM sodium vanadate, 1 mM phenyl phosphate, 10 μg leupeptin/ml, 10 μg aprotinin/ml and 100 μM benzamidine.
(§2) Controls were performed with appropriate dilutions of dimethyl sulfoxide.
(§3) ATP (3000 Ci/mmol; 10 mCi/ml) in a final volume of 30 μl. After incubation for 30 minutes at 30° C., aliquotes of 25 μl of the supernatant were spotted onto Whatman P81 phosphocellulose paper filters and, 20 seconds later, the filters were washed five times (for at least five minutes each time) in a solution of 10 ml of phosphoric acid/liter of water. The wet filters were subjected to counting in the presence of an ACS scintillation fluid from Amersham. CDK2/cyclin A (human, recombinant, expressed in insect cells) was assayed as described for CDK1/cyclin B. CDK5/p25 was reconstituted by mixing equal amounts of recombinant mammalian CDK5 and p25 expressed in E. coli as a GST (glutathione-S-transferase) fusion protein and purified by affinity chromatography on glutathione-agarose (p25 is a truncated version of p35, the 35 kDa CDK5 activator). […] DYRK1A (human, recombinant, expressed in E. coli as a GST fusion protein) was purified on glutathione-agarose, assayed as described for CDK1/cyclin B with myelin basic protein (1 mg/ml) as substrate.

CDK2/cyclin A = target: T1, CDK2/cyclin A (Homo sapiens, UniProt P24941); assay: CDK2/cyclin A kinase assay; type: biochemical; settings: 15 μM ATP, 30° C., histone H1 substrate
T1 construct: host or cells: insect cells
Experimental: as §1, §2, §3

CDK5/p25 = CDK5/p25 (Homo sapiens, UniProt Q00535); assay: CDK5/p25 kinase assay; type: biochemical, mammalian; settings: 15 μM ATP, 30° C., histone H1 substrate
Experimental: as §1, §2, §3

CDK9/cyclin T = target: T2, CDK9/cyclin T (Homo sapiens, UniProt P50750); assay: CDK9/cyclin T kinase assay; type: biochemical; settings: 15 μM ATP, 30° C., pRB fragment substrate
T2 construct: host or cells: insect cells

GSK-3α/β = GSK-3α/β kinase assay; type: biochemical, pig; settings: 15 μM ATP, 30° C., buffer A, GS-1 substrate
CK1δ/ε = CK1δ/ε kinase assay; type: biochemical, pig; settings: 15 μM ATP, 30° C., CK1-specific peptide substrate
Experimental: (§4) The blank values were subtracted and the activities calculated as μmoles of phosphate incorporated per 10 minutes of incubation. […] Controls were performed with appropriate dilutions of dimethyl sulfoxide.
as §3

DYRK1A = DYRK1A (Homo sapiens, UniProt Q13627); assay: DYRK1A kinase assay; type: biochemical; settings: 15 μM ATP, 30° C., myelin basic protein substrate
Experimental: as §4, §3

[1] = tested on: SH-SY5Y human neuroblastoma cells; assay: SH-SY5Y cell viability (MTS reduction); type: cell-based; settings: SH-SY5Y cell line, cell viability by MTS
Experimental: A Cell Titer 96® kit containing the MTS reagent was purchased from Promega (Madison, Wis., USA). The protease inhibitor cocktail came from Roche and the fetal calf serum (FCS) came from Invitrogen. The reagents not listed came from Sigma, unless otherwise indicated.
The SH-SY5Y human neuroblastoma cell line was grown in a DMEM medium with L-glutamine from Invitrogen (Cergy Pontoise, France), antibiotics and 10% by volume of FCS from Invitrogen. The general culture conditions were a 5% CO2 atmosphere and a temperature of 37° C. The culture plates and other disposable plastic tools were supplied by Corning (Corning, N.Y., USA). The treatments with the compounds of the invention were carried out on cultures in exponential growth over time, and indicated concentrations. The control experiments were carried out also using suitable dilutions of DMSO.
The cell viability was determined by measuring the reduction of 3-(4,5-dimethylthiazol-2-yl)-5-(3-carboxymethoxyphenyl)-2-(4-sulfophenyl)-2H-tetrazolium (MTS).

[2] = tested on: Human chronic lymphoid leukemia (B-CLL) lymphocytes; assay: B-CLL cell apoptosis (annexin V / propidium iodide, flow cytometry); type: cell-based; settings: B-CLL cells from patients
Experimental: The CLL cells were isolated from heparinized blood of untreated patients after informed consent.
The mononuclear cells were isolated by centrifugation on a Lymphosep density gradient (Biowest). […] When the percentage of CD19+/CD5+ cells was less than 90%, the B lymphocytes were enriched using the kit II for B-cell enrichment by immunomagnetic depletion of the monocytes, NK cells, granulocytes and T lymphocytes (Miltenyi Biotech).
After incubation, the B-CLL cells were harvested, washed in PBS and resuspended in 100 μl of 1× binding buffer containing FITC-conjugated annexin V and propidium iodide (Beckman Coulter Apoptosis Detection Kit). After incubation for 10 min on ice, the cells were analyzed by flow cytometry and the percentage of cells undergoing apoptosis was determined.

the four kinases assayed = assay: Tests on the four kinases assayed (comparison of enantiomers 34 and 31); type: biochemical; settings: 34 versus 31
Experimental: The kinases were assayed in buffer A or buffer C, at 30° C., at a final ATP concentration of 15 μM. The blank values were subtracted and the activities calculated as μmoles of phosphate incorporated per 10 minutes of incubation. The activities are usually expressed as % (percentage) of maximum activity, i.e. in the absence of inhibitors. Controls were performed with appropriate dilutions of dimethyl sulfoxide.
[…]. J. Biochem. 1997, 243, 527-536. The kinase activity was assayed in buffer C, with 1 mg of histone H1/ml, in the presence of 15 μM of [γ-^33P] ATP (3000 Ci/mmol; 10 mCi/ml) in a final volume of 30 μl. After incubation for 30 minutes at 30° C., aliquotes of 25 μl of the supernatant were spotted onto Whatman P81 phosphocellulose paper filters and, 20 seconds later, the filters were washed five times (for at least five minutes each time) in a solution of 10 ml of phosphoric acid/liter of water. The wet filters were subjected to counting in the presence of an ACS scintillation fluid from Amersham. […]

T2 sequence (P50750 whole entry, the tested form may be a part): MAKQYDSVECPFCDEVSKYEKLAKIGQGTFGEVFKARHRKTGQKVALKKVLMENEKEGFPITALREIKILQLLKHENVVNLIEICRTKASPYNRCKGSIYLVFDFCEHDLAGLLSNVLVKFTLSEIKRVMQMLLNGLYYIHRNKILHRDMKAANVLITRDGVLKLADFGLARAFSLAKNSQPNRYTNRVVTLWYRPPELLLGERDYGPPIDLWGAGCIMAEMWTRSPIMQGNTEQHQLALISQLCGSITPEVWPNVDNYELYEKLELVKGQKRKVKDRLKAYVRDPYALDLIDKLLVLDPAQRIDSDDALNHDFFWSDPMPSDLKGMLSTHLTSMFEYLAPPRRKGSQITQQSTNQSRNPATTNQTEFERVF
T2 sequence (O60563 whole entry partner, the tested form may be a part): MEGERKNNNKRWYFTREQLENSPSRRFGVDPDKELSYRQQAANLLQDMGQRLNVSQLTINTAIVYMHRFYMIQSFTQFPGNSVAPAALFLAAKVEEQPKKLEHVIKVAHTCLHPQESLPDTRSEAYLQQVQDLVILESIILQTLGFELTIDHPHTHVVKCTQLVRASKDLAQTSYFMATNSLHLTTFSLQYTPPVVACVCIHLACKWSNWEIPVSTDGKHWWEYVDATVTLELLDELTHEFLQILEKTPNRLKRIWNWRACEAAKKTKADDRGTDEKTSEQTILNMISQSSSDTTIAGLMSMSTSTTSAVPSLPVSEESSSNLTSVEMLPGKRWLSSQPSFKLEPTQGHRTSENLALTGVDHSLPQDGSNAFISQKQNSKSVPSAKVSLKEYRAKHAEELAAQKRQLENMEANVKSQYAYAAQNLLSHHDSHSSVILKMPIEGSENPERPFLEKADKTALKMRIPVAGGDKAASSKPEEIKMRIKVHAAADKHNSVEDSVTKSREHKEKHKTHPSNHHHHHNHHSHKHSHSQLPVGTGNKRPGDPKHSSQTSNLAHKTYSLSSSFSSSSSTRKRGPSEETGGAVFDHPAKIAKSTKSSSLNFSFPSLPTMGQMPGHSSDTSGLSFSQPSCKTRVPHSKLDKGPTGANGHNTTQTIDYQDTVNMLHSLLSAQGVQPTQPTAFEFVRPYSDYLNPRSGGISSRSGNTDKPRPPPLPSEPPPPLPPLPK
Chain of CDK5/p25 (Q00535 whole entry, species assumed): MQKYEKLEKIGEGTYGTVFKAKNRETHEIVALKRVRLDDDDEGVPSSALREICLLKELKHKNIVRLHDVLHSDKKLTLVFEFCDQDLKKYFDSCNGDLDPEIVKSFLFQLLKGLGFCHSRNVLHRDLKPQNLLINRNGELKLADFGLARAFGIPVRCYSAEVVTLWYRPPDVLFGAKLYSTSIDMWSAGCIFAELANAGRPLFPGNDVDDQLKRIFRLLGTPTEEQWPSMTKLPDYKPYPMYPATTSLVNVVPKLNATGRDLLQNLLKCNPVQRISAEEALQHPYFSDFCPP
Chain of CDK5/p25 (Q15078 99-307 partner limits assumed, species assumed): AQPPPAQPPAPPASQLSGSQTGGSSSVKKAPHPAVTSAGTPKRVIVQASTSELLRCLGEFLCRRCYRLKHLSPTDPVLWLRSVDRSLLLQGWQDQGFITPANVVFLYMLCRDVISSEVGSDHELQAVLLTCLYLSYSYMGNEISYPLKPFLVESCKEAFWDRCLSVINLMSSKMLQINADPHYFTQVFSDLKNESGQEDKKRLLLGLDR

SMILES	pIC50 (CDK1/cyclin B)	pIC50 (CDK2/cyclin A)	pIC50 (CDK5/p25)	pIC50 (CDK9/cyclin T)	pIC50 (GSK-3α/β)	pIC50 (CK1δ/ε)	pIC50 (DYRK1A)	pIC50 [1]	pIC50 [2]	pIC50 ([1]; Homo sapiens)	pIC50 ([2]; Homo sapiens)	activity compared with enantiomer on the four kinases assayed (the four kinases assayed)
CC[C@H](CO)Nc1nc(NCc2ccc(-c3ccccn3)cc2)n2ncc(C(C)C)c2n1 [Compound 3, Fumarate salt of (R)-2-(1-hydroxybut-2-ylamino)-8-isopropyl-4-[4-(pyridin-2-yl)benzylamino]pyrazolo[1,5-a]-1,3,5-triazine]	7.80	7.68	7.74	7.51	5.51	6.89	5.66	7.23	7.49	–	–	–
CCc1cnn2c(NCc3ccc(-c4ccccn4)cc3)nc(NC[C@H](O)CO)nc12 [Compound 34, (S)-2-(1,2-dihydroxypropan-3-ylamino)-8-ethyl-4-[4-(pyridin-2-yl)benzylamino]pyrazolo[1,5-a]-1,3,5-triazine]	–	–	8.00	–	6.28	7.00	6.38	–	–	> 7.52	–	more active than the derivative 31
CCc1cnn2c(NCc3ccc(-c4ccccn4)cc3)nc(NC[C@@H](O)CO)nc12 [Compound 31, (R)-2-(1,2-dihydroxypropan-3-ylamino)-8-ethyl-4-[4-(pyridin-2-yl)benzylamino]pyrazolo[1,5-a]-1,3,5-triazine]	–	–	7.60	–	6.00	6.44	6.15	–	–	> 7.52	–	–
CC[C@H](CO)Nc1nc(NCc2ccc(-c3ccccn3)cc2)n2ncc(C(C)C)c2n1 [Compound 2, (R)-2-(1-hydroxybut-2-ylamino)-8-isopropyl-4-[4-(pyridin-2-yl)benzylamino]pyrazolo[1,5-a]-1,3,5-triazine]	7.64	7.55	7.40	7.14	5.40	6.68	5.74	–	–	7.36	7.49	–
CC(C)c1cnn2c(NCc3ccc(-c4ccsc4)cc3)nc(N[C@H](CO)[C@@H](C)O)nc12 (stereo in doubt) [Compound 16, (2R,3R)-2-(1,3-dihydroxybut-2-ylamino)-8-isopropyl-4-[4-(thiophen-3-yl)benzylamino]pyrazolo[1,5-a]-1,3,5-triazine]	7.23	7.47	7.30	7.04	5.38	6.72	5.74	–	–	–	–	–
CC(C)c1cnn2c(NCc3ccc(-c4ccccn4)cc3)nc(N3CCN(CCO)CC3)nc12 [Compound 30, 2-[4-[8-isopropyl-4-[[4-(pyridin-2-yl)phenyl]methylamino]pyrazolo[1,5-a]-1,3,5-triazin-2-yl]piperazin-1-yl]ethanol]	–	–	6.42	–	5.68	6.25	5.85	–	–	5.85	–	–
CC[C@H](CO)Nc1nc(NCc2ccccc2)n2ncc(C(C)C)c2n1 [N-&-N1, reference compound]	7.05	–	–	–	4.96	5.92	5.89	–	–	5.59	5.85	–

Continued by rising pIC50 (CDK5/p25), values first:

pIC50 (CDK1/cyclin B)	pIC50 (CDK2/cyclin A)	pIC50 (CDK5/p25)	pIC50 (CDK9/cyclin T)	pIC50 (GSK-3α/β)	pIC50 (CK1δ/ε)	pIC50 (DYRK1A)	pIC50 [1]	pIC50 [2]	pIC50 ([1]; Homo sapiens)	pIC50 ([2]; Homo sapiens)	SMILES	activity compared with enantiomer on the four kinases assayed (the four kinases assayed)
6.74	6.66	6.74	7.03	< 5.00	6.68	5.66	–	–	6.37	6.72	CC[C@H](CO)Nc1nc(NCc2ccc(-c3ccccc3)cc2)n2ncc(C(C)C)c2n1 [Compound 1, (R)-2-(1-hydroxybut-2-ylamino)-8-isopropyl-4-(4-phenylbenzylamino)pyrazolo[1,5-a]-1,3,5-triazine]	–
7.29	7.31	7.19	7.21	5.55	6.92	6.21	–	–	–	–	CC(C)c1cnn2c(NCc3ccc(-c4ccccn4)cc3)nc(NC(CO)CO)nc12 [Compound 18, Fumarate salt of 2-(1,3-dihydroxyprop-2-ylamino)-8-isopropyl-4-[4-(pyridin-2-yl)benzylamino]pyrazolo[1,5-a]-1,3,5-triazine]	–
–	–	7.47	–	5.85	6.03	6.09	–	–	7.30	–	CCc1cnn2c(NCc3ccc(-c4ccccn4)cc3)nc(N[C@@H](CC)CO)nc12 [Compound 35, (S)-8-ethyl-2-(1-hydroxybut-2-ylamino)-4-[4-(pyridin-2-yl)benzylamino]pyrazolo[1,5-a]-1,3,5-triazine]	–
7.64	7.80	7.51	7.52	5.46	6.68	6.30	7.10	–	–	–	CC[C@@H](CO)Nc1nc(NCc2ccc(-c3ccccn3)cc2)n2ncc(C(C)C)c2n1 [Compound 5, Fumarate salt of (S)-2-(1-hydroxybut-2-ylamino)-8-isopropyl-4-[4-(pyridin-2-yl)benzylamino]pyrazolo[1,5-a]-1,3,5-triazine]	–
–	–	7.66	–	5.80	6.24	5.80	–	–	7.59	–	CCc1cnn2c(NCc3ccc(-c4ccccn4)cc3)nc(N[C@H](CC)CO)nc12 [Compound 36, (R)-8-ethyl-2-(1-hydroxybut-2-ylamino)-4-[4-(pyridin-2-yl)benzylamino]pyrazolo[1,5-a]-1,3,5-triazine]	–
